Consider 1 compound from patent US10154974B1, “Use of abscisic acid for the prevention and treatment of malaria” (The Regents of the University of California, priority 2015, dated 2018).

Each structure is given as a SMILES string.

This assay concerns P. falciparum. Kind of assay: P. falciparum infection of A. stephensi fed a supplemented infected bloodmeal. It counts as in vivo. The procedure: For P. falciparum infections A. stephensi were fed on a 1:1 ratio of P. falciparum-infected RBCs containing a treatment or diluent control and provided in a Hemotek Insect Feeding System (Discovery Workshops). ABA was eluted in 100% ethanol and stored at −20 C for up to 6 months. ABA stock was diluted with PBS and added into blood immediately before feeding for final concentrations of 10 nM and 100 nM. For L-NAME feeds mosquitoes were maintained on sugar cubes and water pads containing 1 mg/mL L-NAME for 72 hours before the feed and throughout the course of infection. Infection prevalence data were analyzed by Fisher's Exact Test. Oocyst intensities were analyzed by Mann-Whitney test.

For the compound `COC(=O)[C@@H](N)CCCNC(=N)N[N+](=O)[O-]` [L-NAME, Nω-Nitro-L-arginine methyl ester, reference compound], under “1 mg/ml L-NAME added to 100 nM ABA-supplemented infected bloodmeal”, the “P. falciparum infection prevalence” value is reported as “rescued P. falciparum infection prevalence back to control levels”. Moreover, under “1 mg/ml L-NAME alone”, the P. falciparum infection entry is listed as “no effect”.
